Assay results published in patent US8268363B2, “Pharmaceutical combination preparation containing glycyrrhizine, zinc, and a compound comprising a thiol group or a group that is metabolized thereto” (priority 2003, dated 2012).

Tested on: flu symptoms (colds, flu, viral infection of the upper respiratory tract)
Experiment: clinical studies in flu symptoms: single substances and the combination
Type: in vivo, human
Details: single treatment; for effect on a scale of 1-10 (1 least effect, 10 maximum effect): daily dose divided in three doses; for average duration of the illness: daily dose divided in three doses (zinc 125 mg, N-acetylcysteine 2400 mg, glycyrrhicinic acid 1500 mg), without treatment normally 7 days
Protocol: In clinical studies each single substance was tested in flu symptoms (colds, flu, viral infection of the upper respiratory tract) whose duration without treatment normal lasted 7 days.
a) Zinc as a single treatment: • 125mg per day, divided in three doses:
b) N-Acetylcysteine • 2400 mg, divided in three doses;
c) Glycyrrhicinic acid • 1500 mg, divided in three doses;
The average duration of illness with the treatment combination of all three of the above substances a), b), and c) in the majority of the cases the duration of the illness was shortened to 24 hours or less. […] 24 hours later, 85% of the patients were completely without symptoms and able to return to work. The maximum duration in a few cases lasted 5 days.
Further, 20 children between the ages of 7 to 15 years old were treated with half of the doses from the combination of a) b) and c). The results were the same as for the adults.

With `CC(=O)N[C@@H](CS)C(=O)O` [N-Acetylcysteine] the “effect on a scale of 1-10 (1 least effect, 10 maximum effect)” value (shortened to “effect on a scale”) was 5 and the “average duration of the illness” value was 4 days.

For Glycyrrhicinic acid, the “effect on a scale” value was 2 and the “average duration of the illness” value was 5.0 days.

For Zinc, the “effect on a scale” value was 2 and the “average duration of the illness” value was 5 days.
